Experimental data reported in patent publication US5340788A, “Diphenylsulfone derivatives and heat sensitive recording materials” (Nippon Soda Co., Ltd., priority 1990, dated 1994).

How the values were obtained:
[1] = Deposited materials observed after incubation in Ames test; format: physicochemical; conditions: both conditions of metabolic activation and inactivation
Description: (§1) Mutagenic activity of the compound No. 1 in the invention and 4,4'-diglycidyldiphenylsulfone was evaluated by Ames test for using Salmonela strains (TA-100 and TA-1535) and E. coli (WP2uvrA) under conditions of metabolic activation and metabolic inactivation. The metabolic activation system was consisted of supernatant of 9000 G in centrifugation from rat liver homogenate (S9) mixture which was induced by 5,6-benzoflavone or phenobar bital, and a coenzyme. Both test compounds were prepared at concentration of 50 mg/mL by using dimethylformamide. Then, they were successively diluted to prepare lower concentration solutions by the same solvent. The concentration of each test substance is adjusted to be 128, 320, 800, 2000 and 5000 μg/plate. The test mixture of the bacteria, each test substance and sodium phosphate buffer solution (S9 mixture under the metabolic activation condition) was incubated at 37° C. for 20 minutes. After the incubation the mixture was added by soft agar solution containing minimum nutrients, homogeneously inoculated on an agar plate and incubated at 37° C. for 65 hours. […] It was concluded from the results that the compound No 1. was not mutagenic, but 4,4'-diglycidyldiphenylsulfone was mutagen.

[2] = test system: Salmonela strains (TA-100 and TA-1535) and E. coli (WP2uvrA); experiment: Mutagenic activity, Ames test; format: cell-based; conditions: for increase of recovery mutation colony: 128-5000 μg/plate, metabolic activation (S9) and inactivation, all strains; for mutagenicity (conclusion of Ames test): with and without metabolic activation
Description: as §1

[3] = Stability of background to heat and humidity (heat sensitive recording paper, Macbeth Reflection Densitometer); conditions: reflection density, filter #106; for Stability of Background to heat and humidity, After exposing: after 50° C. under 80% humidity; for Stability of Background to heat and humidity, Before exposing: before 50° C., 80% humidity
Description: (§2) Example 4 (Preparation of Heat Sensitive Recording Paper)
(§3) A compound in the invention (or a reference compound)
(§4) Each above mixture was sufficiently homogenized by sand grinder to prepare Liquid A, B or C. One weight part of Liquid A, 2 weight parts of Liquid B and 1 weight part of Liquid C. were mixed to prepare a dispersion liquid to tint. The liquid was coated on white paper by applying Wire Rod No. 12, then dried to manufacture the heat sensitive recording paper.
(§5) In the preparation of Liquid C in Example 4, instead of the compound in the invention, 4-glycidyloxy-4'-isoprpoxydiphenylsulfone was taken place, the other components were same as Example 4 and the heat sensitive recording paper was similarly prepared.
(§6) A part of the heat sensitive recording papers which were prepared according to the Example 4 and the Comparative examples were heated from both sides to develop color at 150° C. by dry-heating tester (Kishino Science machinery Co.). Then, after they were placed in Incubator Controlled Humidity and Temperature at 50° C. under 80% humidity and in Fademeter (Type FAL-5, Suga Tester Co.) exposing for 3 hours, the stability of backgrounds, of the color images and anti-photo stability were determined by Macbeth Reflection Densitometer (Type RD-514, Ratten #106).

[4] = Photostability of developed image (Fademeter, Macbeth Reflection Densitometer); conditions: reflection density, filter #106; for Photostability of developed image, After exposing: after Fademeter exposing for 3 hours; for Photostability of developed image, Before exposing: color developed at 150° C., before Fademeter
Description: as §2, §3, §4, §5, §6

In the case of `O=S(=O)(c1ccc(OCC2CO2)cc1)c1ccc(OCC2CO2)cc1` (stereo not drawn) [4,4'-diglycidyloxydiphenylsulfone, reference compound], the “concentration above which deposited materials were observed” value [1] is reported as 320-800 μg/plate, the “increase of recovery mutation colony” value [2] is reported as “increases of recovery mutation colony were in all strains” and the “mutagenicity (conclusion of Ames test)” value [2] is reported as “mutagenic”. For the same molecule, the “mutagenicity (conclusion of Ames test)” value ([2]; listed as 4,4'-diglycidyldiphenylsulfone) was “mutagen”.

In the case of `O=S(=O)(c1ccc(OCc2ccc(Cl)cc2)cc1)c1ccc(OCC2CO2)cc1` (stereo not drawn) [(2)], the “Stability of Background to heat and humidity, After exposing” value (“Stability of Background … After exposing” for short) [3] is reported as 0.11, the “Stability of Background to heat and humidity, Before exposing” value (“Stability of Background … Before exposing” below) [3] is reported as 0.07 and the “Photostability of developed image, After exposing” value (“Photostability … After exposing” below) [4] is reported as 1.15. For the same molecule, the “Photostability of developed image, Before exposing” value (“Photostability … Before exposing” below) [4] was 1.23.

For `CC1(COc2ccc(S(=O)(=O)c3ccc(OCc4ccccc4Cl)cc3)cc2)CO1` (stereo not drawn) [(3)], the “Stability of Background … After exposing” value [3] was 0.10, the “Stability of Background … Before exposing” value [3] was 0.08 and the “Photostability … After exposing” value [4] was 1.09. For the same molecule, the “Photostability … Before exposing” value [4] was 1.22.

With `CC1(COc2ccc(S(=O)(=O)c3ccc(OCc4ccc(Cl)cc4)cc3)cc2)CO1` (stereo not drawn) [(4)] the “Stability of Background … After exposing” value [3] was 0.09, the “Stability of Background … Before exposing” value [3] was 0.07 and the “Photostability … After exposing” value [4] was 1.14. The “Photostability … Before exposing” value [4] was 1.23.

With `Cc1ccc(COc2ccc(S(=O)(=O)c3ccc(OCC4(C)CO4)cc3)cc2)cc1` (stereo not drawn) [(6)] the “Stability of Background … After exposing” value [3] was 0.12, the “Stability of Background … Before exposing” value [3] was 0.09 and the “Photostability … After exposing” value [4] was 1.16. The “Photostability … Before exposing” value [4] was 1.22.

With `C=CCOc1ccc(S(=O)(=O)c2ccc(OCC3CO3)cc2)cc1` (stereo not drawn) [(7)] the “Stability of Background … After exposing” value [3] was 0.07, the “Stability of Background … Before exposing” value [3] was 0.07 and the “Photostability … After exposing” value [4] was 1.12. The “Photostability … Before exposing” value [4] was 1.21.

In the case of `CC(C)Oc1ccc(S(=O)(=O)c2ccc(OCC3CO3)cc2)cc1` (stereo not drawn) [compound 1, 4-glycidyloxy-4'-isoprpoxydiphenylsulfone, reference compound], the “Stability of Background … After exposing” value [3] is reported as 0.17, the “Stability of Background … Before exposing” value [3] is reported as 0.07 and the “Photostability … After exposing” value [4] is reported as 1.00. The “Photostability … Before exposing” value [4] was 1.19.

For `CC1(COc2ccc(S(=O)(=O)c3ccc(OCc4ccccc4)cc3)cc2)CO1` (stereo not drawn) [compound (1), 4-benzyloxy-4'-(2-methylglycidyloxy)diphenylsulfone], the “Stability of Background … After exposing” value [3] was 0.07, the “Stability of Background … Before exposing” value [3] was 0.06 and the “concentration above which deposited materials were observed” value [1] was greater than 800 μg/plate. The “Photostability … After exposing” value [4] was 1.13, the “Photostability … Before exposing” value [4] was 1.21 and the “increase of recovery mutation colony” value [2] was “No increase of recovery mutation colony was observed in any strain”. For the same molecule, the “mutagenicity (conclusion of Ames test)” value ([2]; listed as compound No. 1) was “not mutagenic”.

With `Cc1ccc(COc2ccc(S(=O)(=O)c3ccc(OCC4CO4)cc3)cc2)cc1` (stereo not drawn) [compound (5), 4-(4-methylbenzyloxy)-4'-glycidyloxydiphenylsulfone] the “Stability of Background … After exposing” value [3] was 0.10, the “Stability of Background … Before exposing” value [3] was 0.08 and the “Photostability … After exposing” value [4] was 1.12. The “Photostability … Before exposing” value [4] was 1.20.
